# Patent USRE37781E1, “Substituted cyclic carbonyls and derivatives thereof useful as retroviral protease inhibitors” (DuPont Pharmaceuticals Company, priority 1991, dated 2002)
# Where two headings read alike, the source gives them in different places.
# Experiments:
# HIV-1 (RF) in MT-2 cells = test: microbe, parasite or virus in culture; assay type: cell-based
# In short: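 HIV-1 laboratory strains (RF, MN, IIIB) grown in H9 cells in RPMI 1640 with 5% FCS; infections in MT-2 cells. Viral RNA quantified by hybridization with biotinylated gag/pol capture probes on streptavidin plates and alkaline phosphatase-conjugated reporter probes; BH10 gag-pol in vitro transcripts serve as RNA standards.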
# [1] = target: single-chain tethered dimer of HIV protease (Human immunodeficiency virus 1, UniProt P04585); test: biochemical; assay type: biochemical; set-up: fused on or other part: A second copy of the same protease unit is joined to the first by a short peptide tether, giving one polypeptide
# [2] = Human immunodeficiency virus 1, MT2, 48 h, Table 2d, class symbols, read-out: IC90
# [3] = read-out: HPLC K1, Table 2d, class symbols
# [4] = Table 2d, HIV protease inhibition, HPLC method, read-out: HPLC K1
# [5] = Human immunodeficiency virus 1, MT2, 48 h, Table 2d, HIV RNA assay, read-out: IC90
# [6] = read-out: HPLC K1, Table 2d, HIV protease inhibition, HPLC method
# [7] = Table 2u (second printing), HPLC method, read-out: K1 (HPLC)
# [8] = Table 2u, HPLC method, read-out: K1 (HPLC)
compound,measurement,setting,value
COCc1cccc(CN2C(Cc3ccccc3)C(O)C(O)C(Cc3ccccc3)N(Cc3cccc(COC)c3)S2(=O)=O)c1 (stereo not shown) [23P],IC90,HIV-1 (RF) in MT-2 cells; Table 2m,++ (++=10 to 100 μg/mL)
same,Ki,"[1]; Table 2m, read-out: HPLC Ki",0.01 to 1 µM
O=C1N(CCCCCCCCO)C(Cc2ccccc2)C(O)C(O)C(Cc2ccccc2)N1CCCCCCCCO (stereo not shown) [Example 12K],IC90,HIV-1 (RF) in MT-2 cells; [2],< 10 mg/L
same,Ki,[1]; [3],0.01 to 1 µM
O=C1N(CCCCCNC(=S)Nc2ccccc2)C(Cc2ccccc2)C(O)C(O)C(Cc2ccccc2)N1CCCCCNC(=S)Nc1ccccc1 (stereo not shown) [15EW],IC90,"HIV-1 (RF) in MT-2 cells; Table 2d, HIV RNA assay",++/+ (The ++/+ is used in the cases where an IC90 was determined to be >50 μg/mL)
same,Ki,[1]; [4],0.01 to 1 µM
CNC(=O)OCCCCCCN1C(=O)N(CCCCCCOC(=O)NC)C(Cc2ccccc2)C(O)C(O)C1Cc1ccccc1 (stereo not shown) [Example 12W],IC90,HIV-1 (RF) in MT-2 cells; [2],10 to 100 mg/L
same,Ki,[1]; [3],0.01 to 1 µM
COC(=O)Cc1cccc(CN2C(=O)N(Cc3cccc(CC(=O)OC)c3)C(Cc3ccccc3)C(O)C(O)C2Cc2ccccc2)c1 (stereo not shown) [15DW],IC90,"HIV-1 (RF) in MT-2 cells; Table 2d, HIV RNA assay",+++ (+++=<10 μg/mL)
same,Ki,[1]; [4],< 0.01 µM
O=C(COCc1ccccc1)c1cccc(CN2C(=O)N(Cc3cccc(C(=O)COCc4ccccc4)c3)C(Cc3ccccc3)C(O)C(O)C2Cc2ccccc2)c1 (stereo not shown) [Example 15BI],IC90,HIV-1 (RF) in MT-2 cells; [5],< 10 mg/L
same,Ki,[1]; [6],< 0.01 µM
O=S1(=O)N(Cc2cccc(CO)c2)C(Cc2ccc(F)cc2)C(O)C(O)C(Cc2ccc(F)cc2)N1Cc1cccc(CO)c1 (stereo not shown) [31C],IC90,HIV-1 (RF) in MT-2 cells; Table 2u,+++ (+++=<10 μg/mL)
same,IC90,HIV-1 (RF) in MT-2 cells; Table 2u (second printing),+++ (+++=<10 μg/mL)
same,Ki,[1]; [7],< 0.01 µM
same,Ki,[1]; [8],< 0.01 µM
Cl.Cl.O=C(NCCCCCN1C(=O)N(CCCCCNC(=O)OCc2cccnc2)C(Cc2ccccc2)C(O)C(O)C1Cc1ccccc1)OCc1cccnc1 (stereo not shown) [15EU],IC90,"HIV-1 (RF) in MT-2 cells; Table 2d, HIV RNA assay",+++ (+++=<10 μg/mL)
same,Ki,[1]; [4],< 0.01 µM
CC(CCCCN1C(=O)N(CCCCC(C)=NO)C(Cc2ccccc2)C(O)C(O)C1Cc1ccccc1)=NO (stereo not shown) [Example 15WC],IC90,HIV-1 (RF) in MT-2 cells; [2],< 10 mg/L
same,Ki,[1]; [3],0.01 to 1 µM
O=C1CCC(CN2C(=O)NC(Cc3ccccc3)C(O)C(O)C2Cc2ccccc2)CC1 (stereo not shown) [Example 15VA],IC90,HIV-1 (RF) in MT-2 cells; [2],> 50 mg/L
same,Ki,[1]; [3],0.01 to 1 µM
O=C1N(CCCCCCO)C(Cc2ccccc2)C(O)C(O)C(Cc2ccccc2)N1CCCCCCCl (stereo not shown) [Example 15VE],IC90,HIV-1 (RF) in MT-2 cells; [2],< 10 mg/L
same,Ki,[1]; [3],0.01 to 1 µM
NC(=O)c1cccc(CN2C(=O)N(Cc3cccc(C(N)=O)c3)C(Cc3ccc(F)cc3)C(O)C(O)C2Cc2ccc(F)cc2)c1 (stereo not shown) [20L],IC90,HIV-1 (RF) in MT-2 cells; Table 2i,+++ (+++=<10 μg/mL)
same,Ki,"[1]; Table 2i, read-out: HPLC Ki",< 0.01 µM
COc1cccc(CC2C(O)C(O)C(Cc3cccc(OC)c3)N(CC3CC3)C(=O)N2CC2CC2)c1 (stereo not shown) [20AS],IC90,HIV-1 (RF) in MT-2 cells; Table 2i,+++ (+++=<10 μg/mL)
same,Ki,"[1]; Table 2i, read-out: HPLC Ki",< 0.01 µM
CCC(=O)CN1C(=O)N(CC(=O)CC)C(Cc2ccccc2)C(O)C(O)C1Cc1ccccc1 (stereo not shown) [Example 15VO],IC90,HIV-1 (RF) in MT-2 cells; [2],> 50 mg/L
same,Ki,[1]; [3],0.01 to 1 µM
O=C1NC(Cc2ccccc2)C(O)C(O)C(Cc2ccccc2)N1CC1CCC(=NO)CC1 (stereo not shown) [Example 15VC],IC90,"HIV-1 (RF) in MT-2 cells; Table 2d, class symbols",++/+ (The ++/+ is used in the cases where an IC90 was determined to be >50 μg/mL)
same,Ki,"[1]; Table 2d, class symbols, read-out: HPLC K1",0.01 to 1 µM
CC(C)(C)Sc1ncccc1CN1C(=O)N(Cc2cccnc2SC(C)(C)C)C(Cc2ccccc2)C(O)C(O)C1Cc1ccccc1 (stereo not shown) [Example 14B],IC90,HIV-1 (RF) in MT-2 cells; [2],< 10 mg/L
same,Ki,[1]; [3],0.01 to 1 µM
O=C1N(Cc2ccc3[nH]cnc3c2)C(Cc2ccccc2)C(O)C(O)C(Cc2ccccc2)N1Cc1ccc2[nH]cnc2c1 (stereo not shown) [15CS],IC90,"HIV-1 (RF) in MT-2 cells; Table 2d, HIV RNA assay",++ (++=10 to 100 μg/mL)
same,Ki,[1]; [4],0.01 to 1 µM
O=C1N(Cc2cccc(CO)c2)C(Cc2ccccc2)C(O)C(O)C(Cc2ccccc2)N1Cc1ccccc1O (stereo not shown) [15EB],IC90,"HIV-1 (RF) in MT-2 cells; Table 2d, HIV RNA assay",+++ (+++=<10 μg/mL)
same,Ki,[1]; [4],0.01 to 1 µM
CCN1C(Cc2ccccc2)C(O)C(O)C(Cc2ccccc2)N(CC)S1(=O)=O (stereo not shown) [23W],IC90,HIV-1 (RF) in MT-2 cells; Table 2m,++ (++=10 to 100 μg/mL)
same,Ki,"[1]; Table 2m, read-out: HPLC Ki",0.01 to 1 µM
O=S1(=O)N(Cc2ccc(CO)cc2)C(Cc2ccc(F)cc2)C(O)C(O)C(Cc2ccc(F)cc2)N1Cc1ccc(CO)cc1 (stereo not shown) [31D],IC90,HIV-1 (RF) in MT-2 cells; Table 2u,+++ (+++=<10 μg/mL)
same,IC90,HIV-1 (RF) in MT-2 cells; Table 2u (second printing),+++ (+++=<10 μg/mL)
same,Ki,[1]; [7],< 0.01 µM
same,Ki,[1]; [8],< 0.01 µM
C=CCCCCN1C(=O)N(CCCCC=C)C(Cc2ccccc2)C(O)C(O)C1Cc1ccccc1 (stereo not shown) [Example 13D],IC90,HIV-1 (RF) in MT-2 cells; [2],< 10 mg/L
same,Ki,[1]; [3],< 0.01 µM
CC(O)c1ccc(CN2C(=O)N(Cc3ccc(C(C)O)cc3)C(Cc3ccccc3)C(O)C(O)C2Cc2ccccc2)cc1 (stereo not shown) [20M],IC90,HIV-1 (RF) in MT-2 cells; Table 2i,+++ (+++=<10 μg/mL)
same,Ki,"[1]; Table 2i, read-out: HPLC Ki",< 0.01 µM
N#Cc1cccc(CN2C(=O)N(Cc3cccc(-c4cc[nH]n4)c3)C(Cc3ccccc3)C(O)C(O)C2Cc2ccccc2)c1 (stereo not shown) [Example 15BV],IC90,HIV-1 (RF) in MT-2 cells; [5],< 10 mg/L
same,Ki,[1]; [6],< 0.01 µM
O=S1(=O)N(Cc2cccc(OCc3ccccc3)c2)C(Cc2ccccc2)C(O)C(O)C(Cc2ccccc2)N1Cc1cccc(OCc2ccccc2)c1 (stereo not shown) [Example 23C],IC90,"HIV-1 (RF) in MT-2 cells; Human immunodeficiency virus 1, MT2, Table 2m, read-out: IC90",10 to 100 mg/L
same,Ki,"[1]; read-out: HPLC Ki, Table 2m",0.01 to 1 µM
